# Like-named read-outs stand apart in the source and are kept apart here.
# Molecular target: T1, EP4 (Homo sapiens, UniProt P35408)
# T1 construct: expressed in transfected cells; membranes prepared by differential centrifugation
# Assay: Prostanoid receptor binding assay (radioligand displacement binding assay)
# Protocol: Prostanoid receptor cDNAs corresponding to full length coding sequences are subcloned into the appropriate sites of mammalian expression vectors and transfected into HEK 293(ebna) cells. HEK 293(ebna) cells expressing the individual cDNAs are grown under selection and individual colonies are isolated after 2-3 weeks of growth using the cloning ring method and subsequently expanded into clonal cell lines.
# Transfected HEK 293(ebna) cells are maintained in culture, harvested and membranes are prepared by differential centrifugation, following lysis of the cells in the presence of protease inhibitors, for use in receptor binding assays. Prostanoid receptor binding assays (for DP1, DP2 (CRTH2), EP1, EP2, EP3-III, EP4, FP, IP, and TP) are performed in 10 mM MES/KOH (pH 6.0) (EPs, FP and TP) or 10 mM HEPES/KOH (pH 7.4) (DPs and IP), containing 1 mM EDTA, 2.5-30 mM divalent cation and the appropriate radio-ligand. Synthetic compounds are added in DMSO which is kept constant at 1% (v/v) in all incubations. The reaction is initiated by addition of membrane protein. Non-specific binding is determined in the presence of 10 μM of the corresponding non-radioactive prostanoid. Incubations are conducted for 60-120 min at room temperature or 30° C. and terminated by rapid filtration. Specific binding is calculated by subtracting non specific binding from total binding. The residual specific binding at each ligand concentration is calculated and expressed as a function of ligand concentration in order to construct sigmoidal concentration-response curves. The binding affinity of the compounds is determined by calculating the equilibrium inhibition constant (Ki) from the equation Ki=InPt/1+[radio-ligand]/Kd where Kd is the equilibrium dissociation constant for the radio-ligand:receptor interaction and InPt is the inflection point of the dose-response curves.
# Abramovitz, M. et al., Biochem, Biophys. Acta, 2000, 1483, pp. 285.
# [1] = column marked X when IC50 < 1, read-out: IC50 (nm) X < 1
# [2] = column marked X when IC50 > 5, read-out: IC50 (nm) X > 5
# [3] = radioligand displacement binding assay, read-out: IC50
# T1 sequence (P35408 whole entry): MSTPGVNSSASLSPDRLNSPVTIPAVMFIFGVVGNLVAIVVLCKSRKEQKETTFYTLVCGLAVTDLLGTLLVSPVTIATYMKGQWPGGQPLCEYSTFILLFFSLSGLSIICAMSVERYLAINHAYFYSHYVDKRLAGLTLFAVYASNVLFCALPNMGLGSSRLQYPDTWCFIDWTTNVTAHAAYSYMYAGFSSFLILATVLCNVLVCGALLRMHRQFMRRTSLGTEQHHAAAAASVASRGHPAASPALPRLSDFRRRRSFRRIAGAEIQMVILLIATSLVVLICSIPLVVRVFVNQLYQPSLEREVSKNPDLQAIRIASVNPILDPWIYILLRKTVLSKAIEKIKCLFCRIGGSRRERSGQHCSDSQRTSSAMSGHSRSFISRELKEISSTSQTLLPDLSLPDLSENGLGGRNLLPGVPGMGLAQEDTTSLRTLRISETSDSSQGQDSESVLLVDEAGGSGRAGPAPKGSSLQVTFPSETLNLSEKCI
Compound,IC50 [1],IC50 [2],IC50 [3]
"CN1CCc2c(n(-c3ccc(CCNC(=O)NS(=O)(=O)c4ccc(Cl)cc4)cc3)c3cccc(Br)c23)C1=O [Example 1-14, N-[({2-[4-(5-bromo-2-methyl-1-oxo-1,2,3,4-tetrahydro-9H-beta-carbolin-9-yl)phenyl]ethyl}amino)carbonyl]-4-chlorobenzenesulfonamide]",< 1 nM,,
"CN1CCc2c(n(-c3ccc(CCNC(=O)NS(=O)(=O)c4ccc(Cl)cc4)cc3)c3cccc(C4CC4)c23)C1=O [Example 2-3, 4-chloro-N-[({2-[4-(5-cyclopropyl-2-methyl-1-oxo-1,2,3,4-tetrahydro-9H-beta-carbolin-9-yl)phenyl]ethyl}amino)carbonyl]benzenesulfonamide]",< 1 nM,,
"CN1CCc2c(n(-c3ccc(CC4(NC(=O)NS(=O)(=O)c5ccc(Cl)cc5)CC4)cc3)c3ccc(-c4ccccn4)cc23)C1=O [Example 1-26, 4-chloro-N-[({1-[4-(2-methyl-1-oxo-6-pyridin-2-yl-1,2,3,4-tetrahydro-9H-beta-carbolin-9-yl)benzyl]cyclopropyl}amino)carbonyl]benzenesulfonamide]",< 1 nM,,
"CN1CCc2c(n(-c3ccc(CC4(NC(=O)NS(=O)(=O)c5ccc(Cl)cc5)CC4)cc3)c3ccc(S(=O)(=O)c4ccccc4)cc23)C1=O [Example 1-37, 4-chloro-N-{[(1-{4-[2-methyl-1-oxo-6-(phenylsulfonyl)-1,2,3,4-tetrahydro-9H-beta-carbolin-9-yl]benzyl}cyclopropyl)amino]carbonyl}benzenesulfonamide]",< 1 nM,,
"CN1CCc2c(n(-c3ccc(CC4(NC(=O)NS(=O)(=O)c5ccc(Cl)cc5)CC4)cc3)c3ccc(-c4nnc(-c5ccccc5)o4)cc23)C1=O [Example 3-5, 4-chloro-N-{[(1-{4-[2-methyl-1-oxo-6-(5-phenyl-1,3,4-oxadiazol-2-yl)-1,2,3,4-tetrahydro-9H-beta-carbolin-9-yl]benzyl}cyclopropyl)amino]carbonyl}benzenesulfonamide]",< 1 nM,,
"Cc1ccccc1-c1ccc2c(c1)c1c(n2-c2ccc(CC3(NC(=O)NS(=O)(=O)c4ccc(Cl)cc4)CC3)cc2)C(=O)N(C)CC1 [Example 1-27, 4-chloro-N-{[(1-{4-[2-methyl-6-(2-methylphenyl)-1-oxo-1,2,3,4-tetrahydro-9H-beta-carbolin-9-yl]benzyl}cyclopropyl)amino]carbonyl}benzenesulfonamide]",< 1 nM,,
"CN1CCc2c(n(-c3ccc(CCNC(=O)NS(=O)(=O)c4ccc(Cl)cc4)cc3)c3cccc(S(C)(=O)=O)c23)C1=O [Example 1-33, 4-chloro-N-{[(2-{4-[2-methyl-5-(methylsulfonyl)-1-oxo-1,2,3,4-tetrahydro-9H-beta-carbolin-9-yl]phenyl}ethyl)amino]carbonyl}benzenesulfonamide]",,> 5 nM,> 5 nM
"CN1CCc2c(n(-c3ccc(CC4(NC(=O)NS(=O)(=O)c5ccc(Cl)cc5)CC4)cc3)c3ccc(-c4cccnc4)cc23)C1=O [Example 1-24, 4-chloro-N-[({1-[4-(2-methyl-1-oxo-6-pyridin-3-yl-1,2,3,4-tetrahydro-9H-beta-carbolin-9-yl)benzyl]cyclopropyl}amino)carbonyl]benzenesulfonamide]",< 1 nM,,
"CN1CCc2c(n(-c3ccc(CCNC(=O)NS(=O)(=O)c4ccc(Cl)cc4)cc3)c3ccc(Cl)c(Cl)c23)C1=O [Example 1-11, 4-chloro-N-[({2-[4-(5,6-dichloro-2-methyl-1-oxo-1,2,3,4-tetrahydro-9H-beta-carbolin-9-yl)phenyl]ethyl}amino)carbonyl]benzenesulfonamide]",< 1 nM,,
"CN1CCc2c(n(-c3ccc(CCNC(=O)NS(=O)(=O)c4ccc(Cl)cc4)cc3)c3cc(C4CC4)ccc23)C1=O [Example 2-4, 4-chloro-N-[({2-[4-(7-cyclopropyl-2-methyl-1-oxo-1,2,3,4-tetrahydro-9H-beta-carbolin-9-yl)phenyl]ethyl}amino)carbonyl]benzenesulfonamide]",< 1 nM,,
"CN1CCc2c(n(-c3ccc(CCNC(=O)NS(=O)(=O)c4ccc(Cl)cc4)cc3)c3ccc(-c4ccccn4)cc23)C1=O [Example 1-22, 4-chloro-N-[({2-[4-(2-methyl-1-oxo-6-pyridin-2-yl-1,2,3,4-tetrahydro-9H-beta-carbolin-9-yl)phenyl]ethyl}amino)carbonyl]benzenesulfonamide]",< 1 nM,,
"CN1CCc2c(n(-c3ccc(CC4(NC(=O)NS(=O)(=O)c5ccc(Cl)cc5)CC4)cc3)c3ccc(Br)cc23)C1=O [Example 1-16, N-[({1-[4-(6-bromo-2-methyl-1-oxo-1,2,3,4-tetrahydro-9H-beta-carbolin-9-yl)benzyl]cyclopropyl}amino)carbonyl]-4-chlorobenzenesulfonamide]",< 1 nM,,
"CN1CCc2c(n(-c3ccc(CC4(NC(=O)NS(=O)(=O)c5ccc(Cl)cc5)CC4)cc3)c3ccc(-c4ccn[nH]4)cc23)C1=O [Example 3-4, 4-chloro-N-{[(1-{4-[2-methyl-1-oxo-6-(1H-pyrazol-5-yl)-1,2,3,4-tetrahydro-9H-beta-carbolin-9-yl]benzyl}cyclopropyl)amino]carbonyl}benzenesulfonamide]",< 1 nM,,
"CN1CCc2c(n(-c3ccc(CCNC(=O)NS(=O)(=O)c4ccc(Cl)cc4)cc3)c3ccc(Br)cc23)C1=O [Example 1-5, N-[({2-[4-(6-bromo-2-methyl-1-oxo-1,2,3,4-tetrahydro-9H-beta-carbolin-9-yl)phenyl]ethyl}amino)carbonyl]-4-chlorobenzenesulfonamide]",< 1 nM,,
"CN1CCc2c(n(-c3ccc(CCNC(=O)NS(=O)(=O)c4ccc(Cl)cc4)cc3)c3ccc(-c4cccc(S(C)(=O)=O)c4)cc23)C1=O [Example 1-36, 4-chloro-N-({[2-(4-{2-methyl-6-[3-(methylsulfonyl)phenyl]-1-oxo-1,2,3,4-tetrahydro-9H-beta-carbolin-9-yl}phenyl)ethyl]amino}carbonyl)benzenesulfonamide]",< 1 nM,,
"COC(=O)c1ccc2c(c1)c1c(n2-c2ccc(CC3(NC(=O)NS(=O)(=O)c4ccc(Cl)cc4)CC3)cc2)C(=O)N(C)CC1 [Example 3-2, methyl 9-[4-({1-[({[(4-chlorophenyl)sulfonyl]amino}carbonyl)amino]cyclopropyl}methyl)phenyl]-2-methyl-1-oxo-2,3,4,9-tetrahydro-1H-beta-carboline-6-carboxylate]",< 1 nM,,
"CN1CCc2c(n(-c3ccc(CCNC(=O)NS(=O)(=O)c4ccc(Cl)cc4)cc3)c3ccc(-c4ccc(F)cc4)cc23)C1=O [Example 1-19, 4-chloro-N-{[(2-{4-[6-(4-fluorophenyl)-2-methyl-1-oxo-1,2,3,4-tetrahydro-9H-beta-carbolin-9-yl]phenyl}ethyl)amino]carbonyl}benzenesulfonamide]",< 1 nM,,
"CN1CCc2c(n(-c3ccc(CCNC(=O)NS(=O)(=O)c4ccc(Cl)cc4)cc3)c3cc(Br)ccc23)C1=O [Example 1-15, N-[({2-[4-(7-bromo-2-methyl-1-oxo-1,2,3,4-tetrahydro-9H-beta-carbolin-9-yl)phenyl]ethyl}amino)carbonyl]-4-chlorobenzenesulfonamide]",< 1 nM,,
"CN1CCc2c(n(-c3ccc(CCNC(=O)NS(=O)(=O)c4ccc(Cl)cc4)cc3)c3cc(-c4ccccc4)ccc23)C1=O [Example 1-18, 4-chloro-N-[({2-[4-(2-methyl-1-oxo-7-phenyl-1,2,3,4-tetrahydro-9H-beta-carbolin-9-yl)phenyl]ethyl}amino)carbonyl]benzenesulfonamide]",,> 5 nM,> 5 nM
"CCN1CCc2c(n(-c3ccc(CCNC(=O)NS(=O)(=O)c4ccc(Cl)cc4)cc3)c3cc(Cl)cc(Cl)c23)C1=O [Example 1-6, 4-chloro-N-[({2-[4-(5,7-dichloro-2-ethyl-1-oxo-1,2,3,4-tetrahydro-9H-beta-carbolin-9-yl)phenyl]ethyl}amino)carbonyl]benzenesulfonamide]",< 1 nM,,
"CN1CCc2c(n(-c3ccc(CC4(NC(=O)NS(=O)(=O)c5ccc(Cl)cc5)CC4)cc3)c3ccc(S(C)(=O)=O)cc23)C1=O [Example 1-34, 4-chloro-N-{[(1-{4-[2-methyl-6-(methylsulfonyl)-1-oxo-1,2,3,4-tetrahydro-9H-beta-carbolin-9-yl]benzyl}cyclopropyl)amino]carbonyl}benzenesulfonamide]",< 1 nM,,
"O=C(NCCc1ccc(-n2c3c(c4c(Cl)cc(Cl)cc42)CCN(c2ccccc2)C3=O)cc1)NS(=O)(=O)c1ccc(Cl)cc1 [Example 1-9, 4-chloro-N-[({2-[4-(5,7-dichloro-1-oxo-2-phenyl-1,2,3,4-tetrahydro-9H-beta-carbolin-9-yl)phenyl]ethyl}amino)carbonyl]benzenesulfonamide]",,> 5 nM,> 5 nM
"CN1CCc2c(n(-c3ccc(CCNC(=O)NS(=O)(=O)c4ccc(Cl)cc4)cc3)c3ccc(-c4ccc(S(C)(=O)=O)cc4)cc23)C1=O [Example 1-35, 4-chloro-N-({[2-(4-{2-methyl-6-[4-(methylsulfonyl)phenyl]-1-oxo-1,2,3,4-tetrahydro-9H-beta-carbolin-9-yl}phenyl)ethyl]amino}carbonyl)benzenesulfonamide]",< 1 nM,,

# Reference: patent US8685999B2, “Beta carboline sulphonylurea derivatives as EP4 receptor antagonists” (Merck Sharp & Dohme Corp., priority 2008, dated 2014)
